The values below are quoted from earlier work in paper PMC3433420 (PLoS ONE, 2012).

Where two headings read alike, the source gives them in different places.

For the data set, the target named is SH2 and PTB domains. Particulars: cited from earlier work. The source says:
Supplement pone.0044471.s022.xlsx, sheet "Most recent PM interactions" | column: Kd || Supplement pone.0044471.s022.xlsx, sheet "All original PM interactions" | column: Kd

The mark [1] stands for this setting: protein ABL2, all original PM interactions, ref Jones et al. 2006 / Kaushansky et al. Chem and Biol 2008.
Setting [2] is: protein ABL2, ref Jones et al. 2006 / Kaushansky et al. Chem and Biol 2008.
[3] abbreviates: protein NCK2, all original PM interactions, ref Jones et al. 2006 / Kaushansky et al. Chem and Biol 2008.
Setting [4] is: protein PIK3R3-NC, all original PM interactions, ref Jones et al. 2006 / Kaushansky et al. Chem and Biol 2008.
The mark [5] stands for this setting: Protein SHB, most recent PM interactions, ref Jones et al. 2006 / Kaushansky et al. Mol Biosys 2008 / Kaushansky et al. Chem and Biol 2008.
Setting [6] is: Protein YES1, most recent PM interactions, ref Jones et al. 2006 / Kaushansky et al. Mol Biosys 2008 / Kaushansky et al. Chem and Biol 2008.
Where [7] appears, read: protein ABL2, ref Jones et al. 2006 / Kaushansky et al. Mol Biosys 2008 / Kaushansky et al. Chem and Biol 2008.
Setting [8] is: protein SHB, ref Jones et al. 2006 / Kaushansky et al. Mol Biosys 2008 / Kaushansky et al. Chem and Biol 2008.
Where [9] appears, read: protein YES1, ref Jones et al. 2006 / Kaushansky et al. Mol Biosys 2008 / Kaushansky et al. Chem and Biol 2008.

Usually Kd stands for the constant that tells how readily two partners part at equilibrium. In the case of “DNPEpYHNASNGPd [ErbB4 pY1188, N-terminally rhodamine-labeled 13-mer phosphopeptide]”, the Kd (protein ABL1, all original PM interactions, ref Jones et al. 2006 / Kaushansky et al. Chem and Biol 2008) is 1820 nM; the Kd under setting [1] was 760 nM; the Kd under setting [2] was 35 nM; the dissociation constant Kd under setting [3] is 2000 nM; the Kd under setting [4] was 2000 nM; the Kd (protein SHC1-PTB, all original PM interactions, ref Jones et al. 2006 / Kaushansky et al. Chem and Biol 2008) was 280 nM. The Kd (protein SHC1-PTB, ref Jones et al. 2006 / Kaushansky et al. Chem and Biol 2008) was 720 nM.

As for IKEDSFLQRpYSSDPTGAd [ErbB1 1069], the Kd under setting [5] was 860 nM and the Kd under setting [6] was 300 nM.

With GTPTAENPEpYLGLDVPV [ErbB2 1248], the Kd is, setting by setting: (Protein ABL2, most recent PM interactions, ref Jones et al. 2006 / Kaushansky et al. Chem and Biol 2008) 210 nM; (Protein SHC1-PTB, most recent PM interactions, ref Jones et al. 2006 / Kaushansky et al. Chem and Biol 2008) 280 nM.

With “EEYEpYMNRRRRHd [ErbB3 pY1199, N-terminally rhodamine-labeled 13-mer phosphopeptide]”, the equilibrium dissociation constant (Kd) by setting is: (protein ABL2, ref Kaushansky et al. Chem and Biol 2008) 300 nM; (protein BLK, ref Kaushansky et al. Chem and Biol 2008) 1810 nM; (protein FGR, ref Kaushansky et al. Chem and Biol 2008) 1130 nM; (protein PIK3R1-NC, ref Kaushansky et al. Chem and Biol 2008) 1510 nM; (protein PIK3R2-N, ref Kaushansky et al. Chem and Biol 2008) 1350 nM; (protein PIK3R3-N, ref Kaushansky et al. Chem and Biol 2008) 1380 nM. Also, the equilibrium dissociation constant (Kd) by setting is: (protein PIK3R3-NC, ref Kaushansky et al. Chem and Biol 2008) 1460 nM; (protein RASA1-N, ref Kaushansky et al. Chem and Biol 2008) 310 nM; (protein YES1, ref Kaushansky et al. Chem and Biol 2008) 590 nM; (protein ZAP70-NC, ref Kaushansky et al. Chem and Biol 2008) 1470 nM.

On to “RDPHpYQDPHSTAd [ErbB1 pY1125, N-terminally rhodamine-labeled 13-mer phosphopeptide]”, for which the Kd is 130 nM under setting [7]; 1070 nM (protein BMX, ref Jones et al. 2006 / Kaushansky et al. Mol Biosys 2008 / Kaushansky et al. Chem and Biol 2008); 1230 nM (protein CRK, ref Jones et al. 2006 / Kaushansky et al. Mol Biosys 2008 / Kaushansky et al. Chem and Biol 2008); 2000 nM (protein CRKL, ref Jones et al. 2006 / Kaushansky et al. Mol Biosys 2008 / Kaushansky et al. Chem and Biol 2008); 1320 nM (protein RASA1-N, ref Jones et al. 2006 / Kaushansky et al. Mol Biosys 2008 / Kaushansky et al. Chem and Biol 2008); 990 nM under setting [8]. Further, the equilibrium dissociation constant (Kd) was 980 nM (protein SYK-NC, ref Jones et al. 2006 / Kaushansky et al. Mol Biosys 2008 / Kaushansky et al. Chem and Biol 2008); 1280 nM (protein TNS1, ref Jones et al. 2006 / Kaushansky et al. Mol Biosys 2008 / Kaushansky et al. Chem and Biol 2008); 380 nM under setting [9].

Consider “PKQEpYLNPVEENd [ErbB4 pY1162, N-terminally rhodamine-labeled 13-mer phosphopeptide]”, for which the Kd runs as follows: under setting [1], 320 nM; under setting [2], 280 nM; (protein CRK, all original PM interactions, ref Jones et al. 2006 / Kaushansky et al. Chem and Biol 2008) 2000 nM; (protein CRKL, all original PM interactions, ref Jones et al. 2006 / Kaushansky et al. Chem and Biol 2008) 2000 nM; under setting [3], 2000 nM; (protein PIK3R2-N, all original PM interactions, ref Jones et al. 2006 / Kaushansky et al. Chem and Biol 2008) 2000 nM. Also, the Kd is, setting by setting: under setting [4], 2000 nM; (protein PLCG1-C, all original PM interactions, ref Jones et al. 2006 / Kaushansky et al. Chem and Biol 2008) 2000 nM; (protein PLCG1-NC, all original PM interactions, ref Jones et al. 2006 / Kaushansky et al. Chem and Biol 2008) 2000 nM; (protein PTPN11-N, all original PM interactions, ref Jones et al. 2006 / Kaushansky et al. Chem and Biol 2008) 2000 nM; (protein RASA1-N, all original PM interactions, ref Jones et al. 2006 / Kaushansky et al. Chem and Biol 2008) 2000 nM; (protein RASA1-N, ref Jones et al. 2006 / Kaushansky et al. Chem and Biol 2008) 980 nM. Besides, the Kd is 2000 nM (protein SLA, all original PM interactions, ref Jones et al. 2006 / Kaushansky et al. Chem and Biol 2008); 2000 nM (protein SYK-NC, all original PM interactions, ref Jones et al. 2006 / Kaushansky et al. Chem and Biol 2008); 2000 nM (protein VAV1, all original PM interactions, ref Jones et al. 2006 / Kaushansky et al. Chem and Biol 2008); 2000 nM (protein VAV2, all original PM interactions, ref Jones et al. 2006 / Kaushansky et al. Chem and Biol 2008); 100 nM (protein VAV2, ref Jones et al. 2006 / Kaushansky et al. Chem and Biol 2008); 2000 nM (protein VAV3, all original PM interactions, ref Jones et al. 2006 / Kaushansky et al. Chem and Biol 2008).

Consider “ENPEpYLSEFSLKd [ErbB4 pY1284, N-terminally rhodamine-labeled 13-mer phosphopeptide]”, for which the Kd was 220 nM (protein ABL2, ref Jones et al. 2006); 2000 nM (protein PIK3R2-NC, all original PM interactions, ref Jones et al. 2006); 2000 nM (protein PIK3R2-NC, ref Jones et al. 2006); 2000 nM (protein PIK3R3-NC, all original PM interactions, ref Jones et al. 2006); 2000 nM (protein PIK3R3-NC, ref Jones et al. 2006); 2000 nM (protein PLCG1-NC, all original PM interactions, ref Jones et al. 2006). In addition, the equilibrium dissociation constant (Kd) reads like this: (protein PLCG1-NC, ref Jones et al. 2006) 2000 nM; (protein RASA1-N, ref Jones et al. 2006) 710 nM; (protein SH2B3, all original PM interactions, ref Jones et al. 2006) 2000 nM; (protein SH2B3, ref Jones et al. 2006) 2000 nM; (protein SHC1-PTB, ref Jones et al. 2006) 24 nM; (protein SLA2, all original PM interactions, ref Jones et al. 2006) 2000 nM. Further, the Kd by setting is: (protein SLA2, ref Jones et al. 2006) 2000 nM; (protein SYK-NC, ref Jones et al. 2006) 1670 nM; (protein VAV2, all original PM interactions, ref Jones et al. 2006) 2000 nM; (protein VAV2, ref Jones et al. 2006) 2000 nM.

As for “FLQRpYSSDPTGAd [ErbB1 pY1069, N-terminally rhodamine-labeled 13-mer phosphopeptide]”, the Kd reads like this: under setting [7], 2000 nM; under setting [8], 860 nM; under setting [9], 300 nM.

For NPAPSRDPHpYQDPHSTAd [ErbB1 1125], the dissociation constant Kd (Protein ABL2, most recent PM interactions, ref Jones et al. 2006 / Kaushansky et al. Mol Biosys 2008 / Kaushansky et al. Chem and Biol 2008) was 74 nM; the dissociation constant Kd (Protein BMX, most recent PM interactions, ref Jones et al. 2006 / Kaushansky et al. Mol Biosys 2008 / Kaushansky et al. Chem and Biol 2008) was 1070 nM; the equilibrium dissociation constant (Kd) (Protein CRK, most recent PM interactions, ref Jones et al. 2006 / Kaushansky et al. Mol Biosys 2008 / Kaushansky et al. Chem and Biol 2008) is 1230 nM; the Kd (Protein RASA1-N, most recent PM interactions, ref Jones et al. 2006 / Kaushansky et al. Mol Biosys 2008 / Kaushansky et al. Chem and Biol 2008) is 1320 nM; the Kd under setting [5] was 990 nM; the Kd (Protein SYK-NC, most recent PM interactions, ref Jones et al. 2006 / Kaushansky et al. Mol Biosys 2008 / Kaushansky et al. Chem and Biol 2008) was 980 nM. The Kd (Protein TNS1, most recent PM interactions, ref Jones et al. 2006 / Kaushansky et al. Mol Biosys 2008 / Kaushansky et al. Chem and Biol 2008) is 1280 nM; the Kd under setting [6] is 380 nM.
